Measured values reported in ChEMBL document CHEMBL3774323, “Stimulation of cortical bone formation with thienopyrimidine based inhibitors of Notum Pectinacetylesterase” (Bioorg Med Chem Lett, 2016).
pEC50, pIC50: −log10 of the molar value. One block for each compound: values may come before it.

Experiments:
[1] = Inhibition of human/mouse notum pectinacetylesterase using OPTS as substrate by fluorimetric assay
[2] = target: T1, Palmitoleoyl-protein carboxylesterase NOTUM (Mus musculus, UniProt Q8R116); test: Inhibition of mouse notum pectinacetylesterase expressed in 293F cells after 30 mins by TCF/LEF cell sensor assay; type: cell-based
T1 sequence (Q8R116 whole entry): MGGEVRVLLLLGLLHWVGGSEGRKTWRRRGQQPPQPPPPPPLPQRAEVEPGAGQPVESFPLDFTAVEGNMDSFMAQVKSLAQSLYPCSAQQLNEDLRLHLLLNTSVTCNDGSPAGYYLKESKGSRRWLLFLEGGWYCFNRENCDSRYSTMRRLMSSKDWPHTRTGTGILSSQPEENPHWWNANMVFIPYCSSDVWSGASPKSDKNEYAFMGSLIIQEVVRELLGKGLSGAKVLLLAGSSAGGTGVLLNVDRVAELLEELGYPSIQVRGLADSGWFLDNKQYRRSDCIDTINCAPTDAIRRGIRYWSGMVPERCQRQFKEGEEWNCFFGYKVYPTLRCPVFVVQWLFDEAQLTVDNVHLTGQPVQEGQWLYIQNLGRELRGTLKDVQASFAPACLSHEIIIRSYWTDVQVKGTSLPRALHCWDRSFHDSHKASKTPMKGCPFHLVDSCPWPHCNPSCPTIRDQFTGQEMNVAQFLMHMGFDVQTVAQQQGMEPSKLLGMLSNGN

[3] = target: T2, Palmitoleoyl-protein carboxylesterase NOTUM (Homo sapiens, UniProt Q6P988); test: Inhibition of human notum pectinacetylesterase expressed in 293F cells after 30 mins by TCF/LEF cell sensor assay; type: cell-based
T2 sequence (Q6P988 whole entry): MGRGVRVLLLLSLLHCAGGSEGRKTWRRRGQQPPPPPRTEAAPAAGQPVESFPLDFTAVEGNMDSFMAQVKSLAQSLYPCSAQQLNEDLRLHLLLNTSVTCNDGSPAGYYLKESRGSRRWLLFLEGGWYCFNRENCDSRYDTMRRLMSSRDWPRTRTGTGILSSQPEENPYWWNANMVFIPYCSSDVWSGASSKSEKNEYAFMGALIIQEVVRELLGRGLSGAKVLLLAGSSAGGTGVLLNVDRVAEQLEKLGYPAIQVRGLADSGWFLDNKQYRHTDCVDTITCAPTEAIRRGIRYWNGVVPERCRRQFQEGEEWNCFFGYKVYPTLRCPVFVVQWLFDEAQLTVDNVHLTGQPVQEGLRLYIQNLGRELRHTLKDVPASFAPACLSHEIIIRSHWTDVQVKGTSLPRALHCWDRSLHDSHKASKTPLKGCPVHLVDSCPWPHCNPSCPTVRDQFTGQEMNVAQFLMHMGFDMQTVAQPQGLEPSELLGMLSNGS

[4] = Cmax in mouse at 10 mg/kg, po; type: ADME, organism-based; set-up: dose 10 mg/kg, route oral; conditions: in vivo
[5] = AUC in mouse at 10 mg/kg, po; type: ADME, organism-based; conditions: in vivo
[6] = Clearance in mouse at 10 mg/kg, po; type: ADME, organism-based; conditions: in vivo
[7] = system: Mus musculus; test: Volume of distribution at steady state in mouse at 10 mg/kg, po; type: ADME, organism-based; conditions: in vivo
[8] = Oral bioavailability in mouse at 10 mg/kg; type: ADME, organism-based; conditions: in vivo

- pIC50 [1]: 8.70
- pEC50 [2]: 5.99
Compound: Cc1sc2ncnc(SCC(=O)O)c2c1C

- pIC50 [1]: 6.82
Compound: Cc1cc2c(SCC(=O)O)ncnc2s1

- pEC50 [3]: 6.84
- pEC50 [2]: 6.31
Compound: Cc1c(Br)sc2ncnc(SCC(=O)O)c12

- pIC50 [1]: 7.04
Compound: Cc1csc2ncnc(SCC(=O)O)c12

- pEC50 [3]: 5.71
- pEC50 [2]: 5.26
Compound: Cc1sc2c(SCC(=O)O)ncnc2c1Cl

- pEC50 [3]: 6.97
- pEC50 [2]: 6.39
- Cmax [4]: 157 µM
- AUC [5]: 515 µM·h
- CL/F [6]: 1.22 mL/min/kg
- Vdss [7]: 0.16 L/kg
- bioavailability [8]: 95%
Compound: Cc1sc2ncnc(SCC(=O)O)c2c1Cl

- pEC50 [3]: 6.06
- pEC50 [2]: 5.35
Compound: Cc1sc2c(SCC(=O)O)ncnc2c1C

- pEC50 [3]: 4.66
- pEC50 [2]: 4.18
Compound: CCc1c(C)sc2ncnc(SCC(=O)O)c12

- pEC50 [3]: 6.05
- pEC50 [2]: 5.59
Compound: Cc1c(Cl)sc2ncnc(SCC(=O)O)c12

- pIC50 [1]: 7.57
- pEC50 [3]: 6.10
Compound: CNC(=O)CSc1ncnc2sc(C)c(C)c12

- pIC50 [1]: 8.70
- pEC50 [3]: 6.07
Compound: Cc1sc2ncnc(SCC(N)=O)c2c1C

- pEC50 [3]: 7.06
- pEC50 [2]: 6.47
Compound: CCCc1sc2ncnc(SCC(=O)O)c2c1Cl

- pEC50 [3]: 6.41
- pEC50 [2]: 5.84
Compound: CCc1sc2ncnc(SCC(=O)O)c2c1Cl

- pEC50 [3]: 6.38
- pEC50 [2]: 5.87
Compound: Cc1c(Br)sc2c(SCC(=O)O)ncnc12

- pIC50 [1]: 8.70
- pEC50 [3]: 6.25
Compound: Cc1sc2ncnc(SCC(=O)NO)c2c1C

- pEC50 [3]: 6.68
- pEC50 [2]: 6.43
Compound: Cc1sc2ncnc(SCC(=O)O)c2c1Br

- pEC50 [3]: 6.08
- pEC50 [2]: 5.58
Compound: CCc1sc2ncnc(SCC(=O)O)c2c1C

- pEC50 [3]: 6.32
- pEC50 [2]: 6.08
Compound: CC(C)c1sc2ncnc(SCC(=O)O)c2c1Cl

- pIC50 [1]: 8.70
- pEC50 [3]: 6.35
Compound: COC(=O)CSc1ncnc2sc(C)c(C)c12

Continued, compound first:

Compound: O=C(O)CSc1ncnc2sc3c(c12)CCCC3
- pIC50 [1]: 6.21

Compound: Cc1csc2c(SCC(=O)O)ncnc12
- pIC50 [1]: 6.71

Compound: Cc1sc2ncnc(SCC(=O)NC#N)c2c1C
- pIC50 [1]: 8.70
- pEC50 [3]: 6.40

Compound: O=C(O)CSc1ncnc2ccccc12
- pIC50 [1]: 5.92

Compound: O=C(O)CSc1ncnc2c(C3CC3)c(Cl)sc12
- pEC50 [2]: 7.26
- Vdss [7]: 0.13 L/kg

Compound: O=C(O)CSc1ncnc2c(C3CC3)c(C(F)(F)F)sc12
- pEC50 [3]: 7.92
- pEC50 [2]: 7.37

Compound: Cc1sc2ncnc(SCC(=O)c3ccc(CNC(=O)C(C)C)o3)c2c1C
- pIC50 [1]: 8.22
- pEC50 [3]: 6.68

Compound: O=C(O)CSc1ncnc2[nH]ncc12
- pIC50 [1]: 4.82

Compound: Cc1sc2ncnc(SCC(=O)c3c[nH]c(C(=O)N4CCCC4)c3)c2c1C
- pIC50 [1]: 8.00
- pEC50 [3]: 6.55

Compound: Cc1sc2ncnc(SCC(=O)c3c[nH]c(CNS(=O)(=O)C4CC4)c3)c2c1C
- pIC50 [1]: 8.70
- pEC50 [3]: 6.77

Compound: Cc1sc2ncnc(SCC(=O)NS(C)(=O)=O)c2c1C
- pIC50 [1]: 7.96
- pEC50 [3]: 5.84

Compound: Cc1c(Cl)sc2c(SCC(=O)O)ncnc12
- pEC50 [3]: 6.36
- pEC50 [2]: 5.84

Compound: Cc1sc2c(SCC(=O)O)ncnc2c1C1CC1
- pEC50 [3]: 6.94
- pEC50 [2]: 6.39

Compound: O=C(O)CSc1ncnc2[nH]ccc12
- pIC50 [1]: 4.82

Compound: O=C(O)CSc1ncnc2scnc12
- pIC50 [1]: 4.82

Compound: Cc1sc2ncnc(SCC(=O)c3ccc(CNC(=O)C4CC4)o3)c2c1C
- pIC50 [1]: 8.30
- pEC50 [3]: 6.60

Compound: O=C(O)CSc1ncnc2sc(C3CC3)c(Cl)c12
- pEC50 [3]: 6.60
- pEC50 [2]: 6.00

Compound: O=C(O)CSc1ncnc2sccc12
- pIC50 [1]: 5.55
